Measurements published in patent US20240158446A1, “CYCLIC COMPOUND HAVING SELECTIVE INHIBITORY ACTION ON KRAS OVER HRAS AND NRAS” (CHUGAI SEIYAKU KABUSHIKI KAISHA, priority 2021, published 2024).
pIC50: −log10 of the molar value. Like-named read-outs stand apart in the source and are kept apart here. Where a SMILES comes first, the peptide text is derived from it. Bridges are numbered along the chain shown (N, C = ends). [ ]: non-standard residue; d: D form. The star is where a group is joined. hPhe(3-Cl-4-CF3) = N[C@@H](CCc1ccc(C(F)(F)F)c(Cl)c1)C(=O)O; NPrPhe(4-CF3) = CCCN[C@@H](Cc1ccc(C(F)(F)F)cc1)C(=O)O; NPrPhe(4-Me) = CCCN[C@@H](Cc1ccc(C)cc1)C(=O)O; Pro(4-spirocPr) = O=C(O)[C@@H]1CC2(CC2)CN1; NMeGly(cPent) = CN[C@H](C(=O)O)C1CCCC1; Pro(4S-Me) = C[C@@H]1CN[C@H](C(=O)O)C1; Hyp = O=C(O)[C@@H]1C[C@@H](O)CN1; NMeF = CN[C@@H](Cc1ccccc1)C(=O)O; NMeD = CN[C@@H](CC(=O)O)C(=O)O; NMeL = CN[C@@H](CC(C)C)C(=O)O; Pip = O=C(O)[C@@H]1CCCCN1; Morpholide = C1CN(*)CCO1; Ac5c = NC1(C(=O)O)CCCC1; Aze = O=C(O)[C@@H]1CCN1; Ac4c = NC1(C(=O)O)CCC1; Sar = CNCC(=O)O

How the values were obtained:
[1] = target: GDP-bound NRAS wild-type protein (Homo sapiens, UniProt P01111); assay: Binding to NRAS by surface plasmon resonance (SPR), Single Cycle Kinetics; conditions: for NRAS/KRAS (ratio of KD value for NRAS to KD value for KRAS) / NRAS/KRAS (ratio of KD value with respect to NRAS to KD value with respect to KRAS): GDP-bound NRAS wild-type protein vs GDP-bound KRAS wild-type protein
[2] = target: GDP-bound HRAS wild-type protein (Homo sapiens, UniProt P01112); assay: Binding to HRAS by surface plasmon resonance (SPR), Single Cycle Kinetics; conditions: for HRAS/KRAS (ratio of KD value for HRAS to KD value for KRAS) / HRAS/KRAS (ratio of KD value with respect to HRAS to KD value with respect to KRAS): GDP-bound HRAS wild-type protein vs GDP-bound KRAS wild-type protein
[3] = test system: human lung cancer strain NCI-H441;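 further: cell proliferation inhibition after four days measured by CellTiter-Glo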

Chain of GDP-bound NRAS wild-type protein (P01111 whole entry): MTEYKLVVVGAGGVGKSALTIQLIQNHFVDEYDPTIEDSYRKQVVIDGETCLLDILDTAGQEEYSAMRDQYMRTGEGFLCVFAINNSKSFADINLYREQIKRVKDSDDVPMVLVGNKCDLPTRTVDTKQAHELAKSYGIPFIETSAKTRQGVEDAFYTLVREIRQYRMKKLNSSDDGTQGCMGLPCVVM
Chain of GDP-bound HRAS wild-type protein (P01112 whole entry): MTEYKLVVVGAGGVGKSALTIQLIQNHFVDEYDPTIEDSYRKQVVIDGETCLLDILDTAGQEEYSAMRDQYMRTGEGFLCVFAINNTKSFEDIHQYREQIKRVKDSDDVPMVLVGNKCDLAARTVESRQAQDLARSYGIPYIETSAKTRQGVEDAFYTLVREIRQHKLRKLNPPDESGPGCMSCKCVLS

Structure (SMILES)	pIC50 [3]	NRAS/KRAS (ratio of KD value for NRAS to KD value for KRAS) ([1]; SPR)	HRAS/KRAS (ratio of KD value for HRAS to KD value for KRAS) ([2]; SPR)	also measured
CCO[C@@H]1C[C@H]2C(=O)NC3(CCC3)C(=O)N(C)[C@@H](C3CCCC3)C(=O)N(C)[C@H](C(=O)N3CCOCC3)CC(=O)N(C)[C@@H](Cc3cscn3)C(=O)N[C@@H]([C@@H](C)CC)C(=O)N(C)CC(=O)N(C)[C@H]3CCCCCN(C3=O)[C@@H](Cc3ccc(C(F)(F)F)cc3)C(=O)N(C)CC(=O)N[C@@H](CCc3cc(F)c(C(F)(F)F)c(F)c3)C(=O)N2C1 [PP0855]	6.94	B (a compound having 3 or more and less than 10 is denoted as B)	B (a compound having 3 or more and less than 10 is denoted as B)	–
CCCN1C(=O)CN(C)C(=O)[C@@H]2CCN2C(=O)[C@H]([C@@H](C)CC)NC(=O)[C@H](CC(C)C)N(C)C(=O)C[C@@H](C(=O)N(C)C)NC(=O)[C@H](C2CCCC2)N(C)C(=O)C2(CCC2)NC(=O)[C@@H]2C[C@@H](OCC)CN2C(=O)[C@H](CCc2ccc(C(F)(F)F)c(Cl)c2)NC(=O)CN(C)C(=O)[C@@H]1Cc1ccc(C(F)(F)F)cc1 [PP0378] ([NMeL]I[Aze][Sar][NPrPhe(4-CF3)][Sar][hPhe(3-Cl-4-CF3)][Hyp](Et)[Ac4c][NMeGly(cPent)]D-NMe2; lactam N-11)	6.96	B (a compound having 3 or more and less than 10 is denoted as B)	B (a compound having 3 or more and less than 10 is denoted as B)	–
CCO[C@@H]1C[C@H]2C(=O)NC3(CCC3)C(=O)N(C)[C@@H](C3CCCC3)C(=O)N(C)[C@H](C(=O)N(C)C)CC(=O)N(C)[C@@H](CC)C(=O)N[C@@H]([C@@H](C)CC)C(=O)N(C)CC(=O)N(C)[C@H]3CCCCCN(C3=O)[C@@H](Cc3ccc(F)cc3Cl)C(=O)N(C)CC(=O)N[C@@H](CCc3cc(F)c(C(F)(F)F)c(F)c3)C(=O)N2C1 [PP0908]	7.41	B (a compound having 3 or more and less than 10 is denoted as B)	B (a compound having 3 or more and less than 10 is denoted as B)	–
CCCO[C@@H]1C[C@H]2C(=O)NC3(CC(C)(C)C3)C(=O)N(C)[C@@H](C3CCCC3)C(=O)N(C)[C@H](C(=O)N(C)CC)CC(=O)N(C)[C@H]3CCCc4ccc(cc4)C[C@@H](C(=O)N(C)CC(=O)N[C@@H](CCc4ccc(C(F)(F)F)c(OC)c4)C(=O)N2C1)N1CC/C=C\C[C@@H](C1=O)N(C)C(=O)CN(C)C(=O)[C@H]([C@@H](C)CC)NC3=O [PP3083]	–	A (a compound having 10 or more and less than 20 is denoted as A)	A (a compound having 10 or more and less than 20 is denoted as A)	ratio of the KD value with respect to GDP-bound NRAS wild-type protein to the KD value with respect to KRAS ([1]; SPR, KD(NRAS)/KD(KRAS)): A (a compound having 10 or more and less than 20 is denoted as A); ratio of the KD value with respect to GDP-bound HRAS wild-type protein to the KD value with respect to KRAS ([2]; SPR, KD(HRAS)/KD(KRAS)): A (a compound having 10 or more and less than 20 is denoted as A); pIC50 ([3]; read-out: NCI-H441 cell proliferation inhibitory activity, 50% proliferation inhibitory concentration (IC50 value), NCI-H441, four days, CellTiter-Glo): 8.60
CCO[C@@H]1C[C@H]2C(=O)NC3(CCC3)C(=O)N(C)[C@@H](C3CCCC3)C(=O)N(C)[C@H](C(=O)N(CC)CC)CC(=O)N(C)[C@@H](CC(C)C)C(=O)N[C@@H]([C@@H](C)CC)C(=O)N(C)CC(=O)N(C)[C@H]3C/C=C\CCN(C3=O)[C@@H](Cc3ccc(C)cc3)C(=O)N(C)CC(=O)N[C@@H](CCc3ccc(C(F)(F)F)c(OC)c3)C(=O)N2C1 [PP1887]	–	–	–	NRAS/KRAS (KD ratio) ([1]; ratio of KD for GDP-bound NRAS wild-type protein to KD for KRAS, SPR): A (a compound having 10 or more and less than 20 is denoted as A); HRAS/KRAS (KD ratio) ([2]; ratio of KD for GDP-bound HRAS wild-type protein to KD for KRAS, SPR): B (a compound having 3 or more and less than 10 is denoted as B); pIC50 ([3]; read-out: NCI-H441 IC50, NCI-H441 cell proliferation, 4 days, CellTiter-Glo): 7.72
CCCN1C(=O)CN(C)C(=O)[C@@H]2CCN2C(=O)[C@H]([C@@H](C)CC)NC(=O)[C@H](CC(C)C)N(C)C(=O)C[C@@H](C(=O)N2CCOCC2)N(C)C(=O)[C@H](C2CCCC2)N(C)C(=O)C2(CCCC2)NC(=O)[C@@H]2C[C@H](C)CN2C(=O)[C@H](CCc2ccc(C(F)(F)F)c(Cl)c2)NC(=O)CN(C)C(=O)[C@@H]1Cc1ccc(C(F)(F)F)cc1 [PP0453] ([NMeL]I[Aze][Sar][NPrPhe(4-CF3)][Sar][hPhe(3-Cl-4-CF3)][Pro(4S-Me)][Ac5c][NMeGly(cPent)][NMeD]-Morpholide; lactam N-11)	7.69	–	–	NRAS/KRAS (ratio of KD value with respect to NRAS to KD value with respect to KRAS) ([1]; SPR): B (a compound having 3 or more and less than 10 is denoted as B); HRAS/KRAS (ratio of KD value with respect to HRAS to KD value with respect to KRAS) ([2]; SPR): C (A compound having a KD ratio of 0.1 or more and less than 3 is denoted as C)
CCCN1C(=O)CN(C)C(=O)[C@@H]2CCN2C(=O)[C@H]([C@@H](C)CC)NC(=O)[C@H](CC(C)C)N(C)C(=O)C[C@@H](C(=O)N2CCOCC2)N(C)C(=O)[C@H](C2CCCC2)N(C)C(=O)C2(CCCC2)NC(=O)[C@@H]2CCCN2C(=O)[C@H](CCc2ccc(C(F)(F)F)c(Cl)c2)NC(=O)CN(C)C(=O)[C@@H]1Cc1ccc(C(F)(F)F)cc1 [PP0158] ([NMeL]I[Aze][Sar][NPrPhe(4-CF3)][Sar][hPhe(3-Cl-4-CF3)]P[Ac5c][NMeGly(cPent)][NMeD]-Morpholide; lactam N-11)	7.81	A (a compound having 10 or more and less than 20 is denoted as A)	B (a compound having 3 or more and less than 10 is denoted as B)	–

The next lines start with results.

pIC50 [3]	Structure (SMILES)	NRAS/KRAS (ratio of KD value for NRAS to KD value for KRAS) ([1]; SPR)	HRAS/KRAS (ratio of KD value for HRAS to KD value for KRAS) ([2]; SPR)	also measured
7.25	CCCN1C(=O)CN(C)C(=O)[C@@H]2CCN2C(=O)[C@H]([C@@H](C)CC)NC(=O)[C@H](CC(C)C)N(C)C(=O)C[C@@H](C(=O)N2CCOCC2)N(C)C(=O)[C@H](C2CCCC2)N(C)C(=O)C2(CCCC2)NC(=O)[C@@H]2CC3(CC3)CN2C(=O)[C@H](CCc2ccc(C(F)(F)F)c(Cl)c2)NC(=O)CN(C)C(=O)[C@@H]1Cc1ccc(C(F)(F)F)cc1 [PP0308] ([NMeL]I[Aze][Sar][NPrPhe(4-CF3)][Sar][hPhe(3-Cl-4-CF3)][Pro(4-spirocPr)][Ac5c][NMeGly(cPent)][NMeD]-Morpholide; lactam N-11)	B (a compound having 3 or more and less than 10 is denoted as B)	B (a compound having 3 or more and less than 10 is denoted as B)	–
6.25	CCCN1C(=O)[C@@H]2CCN2C(=O)[C@H](Cc2ccccc2)N(C)C(=O)[C@H]([C@@H](C)CC)NC(=O)[C@H](CC(C)C)N(C)C(=O)C[C@@H](C(=O)N2CCOCC2)N(C)C(=O)[C@H](C2CCCC2)N(C)C(=O)C2(CCCC2)NC(=O)[C@@H]2CCCN2C(=O)[C@H](CCc2ccc(C(F)(F)F)c(Cl)c2)NC(=O)CN(C)C(=O)[C@@H]1Cc1ccc(C(F)(F)F)cc1 [PP0209] ([NMeL]I[NMeF][Aze][NPrPhe(4-CF3)][Sar][hPhe(3-Cl-4-CF3)]P[Ac5c][NMeGly(cPent)][NMeD]-Morpholide; lactam N-11)	C (A compound having a KD ratio of 0.1 or more and less than 3 is denoted as C)	C (A compound having a KD ratio of 0.1 or more and less than 3 is denoted as C)	–
6.51	CCC[C@H]1C(=O)N[C@@H]([C@@H](C)CC)C(=O)N(C)CC(=O)N(C)[C@H]2C/C=C\CCN(C2=O)[C@@H](Cc2ccc(C)cc2)C(=O)N(C)CC(=O)N[C@@H](CCc2ccc3ccn(C)c3c2)C(=O)N2C[C@H](OCC)C[C@H]2C(=O)NC2(CC(C)(C)C2)C(=O)N(C)[C@@H](C(CC)CC)C(=O)N(C)[C@H](C(=O)N(C)C)CC(=O)N1C [PP2914]	–	–	NRAS/KRAS (ratio of KD value with respect to GDP-bound NRAS wild-type protein to KD value with respect to KRAS) ([1]; SPR KD ratio NRAS/KRAS, class symbols): AA (a compound having 20 or more is denoted as AA); HRAS/KRAS (ratio of KD value with respect to GDP-bound HRAS wild-type protein to KD value with respect to KRAS) ([2]; SPR KD ratio HRAS/KRAS, class symbols): A (a compound having 10 or more and less than 20 is denoted as A)
7.69	CCO[C@@H]1C[C@H]2C(=O)NC3(CCC3)C(=O)N(C)[C@@H](C3CCCC3)C(=O)N(C)[C@H](C(=O)N(C)C)CC(=O)N(C)[C@@H](CC(C)(C)C)C(=O)N[C@@H]([C@@H](C)CC)C(=O)N(C)CC(=O)N(C)[C@H]3CCCCCN(C3=O)[C@@H](Cc3ccc(C(F)(F)F)cc3)C(=O)N(C)CC(=O)N[C@@H](CCc3cc(F)c(C(F)(F)F)c(F)c3)C(=O)N2C1 [PP0669]	–	–	NRAS/KRAS (ratio of KD value with respect to NRAS to KD value with respect to KRAS) ([1]; SPR): B (a compound having 3 or more and less than 10 is denoted as B); HRAS/KRAS (ratio of KD value with respect to HRAS to KD value with respect to KRAS) ([2]; SPR): B (a compound having 3 or more and less than 10 is denoted as B)
6.69	CCO[C@@H]1C[C@H]2C(=O)NC3(CCC3)C(=O)N(C)[C@@H](C3CCCC3)C(=O)N(C)[C@H](C(=O)N(C)C)CC(=O)N(C)[C@@H](CC)C(=O)N[C@@H]([C@@H](C)CC)C(=O)N(C)CC(=O)N(C)[C@H]3CCCCCN(C3=O)[C@@H](Cc3nccs3)C(=O)N(C)CC(=O)N[C@@H](CCc3cc(F)c(C(F)(F)F)c(F)c3)C(=O)N2C1 [PP0913]	B (a compound having 3 or more and less than 10 is denoted as B)	B (a compound having 3 or more and less than 10 is denoted as B)	–
8.68	CCCN1C(=O)[C@@H]2CCN2C(=O)[C@@H]2CCCCN2C(=O)[C@H]([C@@H](C)CC)NC(=O)[C@H](CC(C)C)N(C)C(=O)C[C@@H](C(=O)N2CCOCC2)N(C)C(=O)[C@H](C2CCCC2)N(C)C(=O)C2(CCCC2)NC(=O)[C@@H]2CCCN2C(=O)[C@H](CCc2ccc(C(F)(F)F)c(Cl)c2)NC(=O)CN(C)C(=O)[C@@H]1Cc1ccc(C)cc1 [PP0070] ([NMeL]I[Pip][Aze][NPrPhe(4-Me)][Sar][hPhe(3-Cl-4-CF3)]P[Ac5c][NMeGly(cPent)][NMeD]-Morpholide; lactam N-11)	C (A compound having a KD ratio of 0.1 or more and less than 3 is denoted as C)	B (a compound having 3 or more and less than 10 is denoted as B)	–
